Measurements taken from patent publication US7658916B2, “Methods of enhancing lysosomal storage disease therapy by modulation of cell surface receptor density” (Genzyme Corporation, priority 2002, dated 2010).
Like-named read-outs stand apart in the source and are kept apart here.

What was measured:
L6 myotubes = assay: Alpha-galactosidase uptake by L6 myotubes in vitro; format: cell-based, rat; settings: 5 mM M6P; to the endogenous level
Procedure: Muscles are the major target tissues for enzyme replacement therapy of Pompe disease due to the lack of acid alpha-glucosidase. To determine if the M6P/IGF-II receptor-mediated lysosomal enzyme uptake pathway can be augmented by insulin/glucose, the effects of insulin/glucose were analyzed on induced muscle cells (myotubes) in vitro. L6 myoblasts (or induced myotubes) and Hep3B cells were cultured in 6-well dishes. Rat L6 myoblasts (ATCC# CRL-1458) were cultured at 37° C. under 5% CO2 in VitaCell DMEM media (ATCC# 30-2002) with 4 mM L-glutamine, 10% fetal bovine serum (Gibco #16000-044) and 1× penicillin/streptomycin. Once confluent, cells were switched to VitaCell DMEM plus 2% horse sera (Gibco# 26050-088) and 1× penicillin/streptomycin. Media were changed every 3 days and at day 9-10, myotubes could be observed as multinuclear tubes. About 30-40% of the myoblasts formed myotubes. Cells were used for uptake assay at day 10. Hep3B cells were grown in MEM-eagle (Gibco# 11960-044) with 10% FBS, 1×NEAA, 1× sodium pyruvate and 1× penicillin/streptomycin.
Before the uptake assay, the cells were washed once with PBS and once with DMEM minus glucose media (Gibco#11966-025), then the cells were starved in 1.5 ml of DMEM minus glucose media for 1 hour at 37° C. […]

[1] = test system: rat alveolar macrophage cell line NR 8383; assay: CEREZYME enzyme uptake by rat alveolar macrophage cells in vitro; format: cell-based
Procedure: (§1) The rat alveolar macrophage cell line NR 8383 (ATCC# CRL-2192) were cultured in Kaighn's modified F12K nutrient mixture (Gibco# 21127-002) with 2 mM L-glutamine (Gibco# 25030-081), 15% heat-inactivated fetal bovine serum (FBS) (Gibco# 16000-044) and 1× penicillin/streptomycin. Most of the cells were attached to the dish, with some in suspension. Hep3B cells were grown in MEM-eagle (Gibco# 11960-044) with Earles salts and 10% FBS, 1× non-essential amino acid (NEAA), 1× sodium pyruvate and 1× penicillin/streptomycin. Human liver sinusoidal endothelial cells (LSECS) (ACBRI#-566) were purchased from Applied Cell Biology Research Institute through Cell Systems, Inc. Cells were cultured in CS-C Media (CSC# 4Z0-500) with additional 10% FBS. During passage, the culture dishes or flasks were treated with attachment factor solution (CSC# 4Z0-210). Prior to seeding, the purity of the LSECs was confirmed by immunostaining with anti-VOA Willebrand factor (data not shown).
For dexamethasone or other drug treatment, the cells were incubated with the drugs under various conditions as indicated in each figure legend (FIGS. 1A-F). […]
(§2) The lysates were used for glucocerebrosidase assay in duplicate or triplicate with 4-MU-beta-glucoside (Sigma# M-3633) as substrate and with CEREZYME® enzyme as standard. Proteins were quantified using a MicroBCA protein assay kit (Pierce) with BSA as standard. […]

Hep3B cells = assay: CEREZYME enzyme uptake by hepatocytes (Hep3B) in vitro; format: cell-based; settings: dexamethasone treatment; result in words
Procedure: as §1, with “shown). […]” for “shown).”
as §2

[2] = test system: spleen and bone marrow tissues; assay: Glucocerebrosidase activity in rat spleen and bone marrow after CEREZYME enzyme injection; format: in vivo, Fisher rats; settings: rats, 100 μg dexamethasone, 2.5 U CEREZYME; equals level of non-treated rats given 10 U
Procedure: To assess the effect of dexamethasone treatment on CEREZYME® enzyme uptake by liver macrophage (Kupffer cells) in vivo, Fisher rats (female, ˜130 g) were divided into four groups (n=3). The first and second groups of rats only received vehicle PBS without dexamethasone, and the third and fourth groups were treated with water-soluble dexamethasone sodium phosphate (American Reagent Laboratories Inc.) at 10 μg and 100 μg (diluted into 200 μl PBS) per rat through intraperitoneal injection. Four doses of dexamethasone were given over two consecutive days, one dose in early morning and one dose in late afternoon on each day. On the third day, CEREZYME® enzyme at 2.5 U per rat (˜18 U/kg) diluted in PBS was administrated into the second, third and fourth groups of rats through tail vein bolus injection. The first group was used as negative control.
Direct measurement of glucocerebrosidase activity in spleen, liver and bone marrow tissues after CEREZYME® enzyme uptake was also assessed in another set of experiments. Five groups of rats were used (n=3). The first four groups were treated in the same manner as described above, whereas the fifth group of rats was not treated with dexamethasone but received 10 U of CEREZYME® enzyme per rat and used as positive controls. […] The supernatants were saved and measured for glucocerebrosidase activity and normalized to protein content as described above.

spleen macrophages = assay: CEREZYME enzyme uptake in vivo by isolated rat spleen macrophages; parameters: species or system Fisher rats
Procedure: Quantitative analysis of the dexamethasone effects on CEREZYME® enzyme uptake in vivo was performed on macrophage cells isolated from spleens through the attachment method (Gessani S, 2000 #35). Fisher rats (female, 180-200 g) were used and divided into four groups. After dexamethasone (50 μg/rat) pretreatment and CEREZYME® enzyme (or unmodified glucocerebrosidase) injection, rat spleens were excised and cut into small pieces. The total spleen cells were released by pressing between two frosted cover slides, followed by washing with 15 ml of RPMI media containing 10% heat-inactivated FBS. Red blood cells were lysed with red blood cell lysis buffer (Sigma). The rest of the splenocytes were seeded in 150-mm tissue culture dishes and incubated at 37° C. for 1 hour for the attachment isolation of macrophages. 15 ml of media were added to five 150-mm tissue culture dishes as blanks for nonspecific protein binding. After removing the cells in suspension and washing the attached cells 5 times with PBS, the attached cells were lysed in KP buffer by scrapping and assayed for glucocerebrosidase activity and protein content. The average of protein content of the blank dishes was subtracted from each cell sample. For dose response of CEREZYME® enzyme to dexamethasone, rats pretreated with dexamethasone were injected with different doses of CEREZYME® enzyme as for the control groups without dexamethasone pretreatment. Attached cells (>90% spleen macrophages) were isolated for glucocerebrosidase assay as described above. […] The absolute enzyme activity, however, was ˜220% of the control without dexamethasone treatment (FIG. 4A). The dexamethasone effects were also tested at other CEREZYME® enzyme doses at 7 U/kg and 72 U/kg respectively, which are either below or above the saturation levels (Mistry, 1996 #10). As is shown in FIG. 4B, at both doses, the dexamethasone effects were about the same and increased CEREZYME® enzyme uptake to a similar level as with 18 U/kg of CEREZYME® enzyme, namely, about 3-fold increase after dosage correction. The absolute CEREZYME® enzyme activity was ˜250% of the control sample at 72 U/kg.

[3] = test system: asialoglycoprotein receptors (ASGPR); settings: cited from earlier work
muscle tissues [4] = test system: muscle tissues; parameters: species or system normal mice (129 SV); settings: mouse, in vivo, 6 mg/kg
Procedure: (§3) To directly evaluate the effects of insulin/glucose on alpha-galactosidase uptake in vivo, normal (129 SV, 3-4 month, male) and Fabry mice (on 129SV background, 3-4 month, male) were used for uptake assays under different conditions.
(§4) Normal mice were fasted overnight from 5 p.m. to 9 a.m. next morning, and then divided into three groups. […] The second group directly received alpha-galactosidase injection (6 mg/kg) through tail vein as bolus injection; the third group was first gavaged with 0.5 ml of 50% glucose followed by subcutaneous injection of insulin (0.25 U) on the upper back 10 minutes later, after another 45 minutes, alpha-galactosidase was injected as for the second group. Two hours after alpha-galactosidase injection, different tissues (heart, diaphragm, tongue, muscle gastrocnemius, muscle vastus laterus, muscle paraspinal) were collected and assayed for alpha-galactosidase activity after homogenization in alpha-galactosidase assay buffer plus 1% of triton and 1× protease inhibitor cocktail.

muscle tissues [5] = settings: mouse, in vivo
Procedure: as §3, §4
Here, 4 groups of Fabry mice were used and similarly treated as for the normal mice. […]

mannose receptor = settings: cited from earlier work

For `O=P(O)(O)OC[C@H]1OC(O)[C@@H](O)[C@@H](O)[C@@H]1O` (stereo partly drawn) [M6P], the “inhibition of alpha-galactosidase uptake by myotubes” value (L6 myotubes) was “entire alpha-galactosidase uptake can be inhibited”.

In the case of `C[C@@H]1C[C@H]2[C@@H]3CCC4=CC(=O)C=C[C@]4(C)[C@@]3(F)[C@@H](O)C[C@]2(C)[C@@]1(O)C(=O)CO` [dexamethasone], the “increase of CEREZYME enzyme uptake by rat alveolar macrophage cells” value ([1]; after two days, separate experiment) is reported as 250-350%, the “effect on CEREZYME enzyme uptake by hepatocytes” value (Hep3B cells) is reported as “did not significantly enhance” and the “increase of total glucocerebrosidase activity in spleen” value [2] is reported as 4 fold. The “increase in CEREZYME enzyme uptake by spleen macrophages after dosage correction” value (spleen macrophages; CEREZYME 7 U/kg and 72 U/kg) was “about 3 fold”, the “absolute enzyme activity in spleen macrophages, % of control without dexamethasone” value (spleen macrophages; CEREZYME 18 U/kg) was about 220% and the “absolute CEREZYME enzyme activity in spleen macrophages, % of control sample” value (spleen macrophages; CEREZYME 72 U/kg) was about 250%. For the same molecule, the “increase in CEREZYME enzyme uptake by spleen macrophages after normalizing the dose contribution” value (spleen macrophages; dexamethasone 50 μg/rat, CEREZYME 18 U/kg) was “at least 3 fold”.

For Interferon alpha, the “inhibition of binding and uptake of asialoglycoproteins” value (“inhibition … of asialoglycoproteins” below) ([3]; after 3-6 hour treatment) is listed as 50% and the “inhibition … of asialoglycoproteins” value ([3]; after 24 hour treatment) is listed as about 100%.

For “alpha-galactosidase: recombinant human alpha-galactosidase, used as a model M6P-bearing lysosomal enzyme”, the “alpha-galactosidase activity in muscle tissues after injection alone” value (muscle tissues [4]) was “increased its activity in all the muscle tissues”, the “alpha-galactosidase activity in tissues relative to wildtype tissues” value (muscle tissues [5]) was “about similar levels” and the “increase in alpha-galactosidase activity in heart over wildtype tissue” value (muscle tissues [5]) was “more than 10 fold”.

In the case of prostaglandin E, the “enhancement of mannose receptor cell surface expression on macrophages” value (mannose receptor) is given as 4-6 fold.

B1: interferon-gamma: cytokine that down-regulates mannose receptors and asialoglycoprotein receptors (protein, UniProt P01579 24-161, looked up)
Interferon gamma: QDPYVKEAENLKKYFNAGHSDVADNGTLFLGILKNWKEESDRKIMQSQIVSFYFKLFKNFKDDQSIQKSVETIKEDMNVKFFNSNKKKRDDFEKLTNYSVTDLNVQRKAIHELIQVMAELSPAAKTGKRKRSQMLFRG
In the case of B1, the “inhibition … of asialoglycoproteins” value ([3]; after 3-6 hour treatment) is listed as 50% and the “inhibition … of asialoglycoproteins” value ([3]; after 24 hour treatment) is listed as about 100%.

B2: mouse interferon-gamma: mouse interferon-γ, species-specific down-regulator of mannose receptor expression on macrophage cells (protein, UniProt P01580 23-155, looked up)
Interferon gamma: HGTVIESLESLNNYFNSSGIDVEEKSLFLDIWRNWQKDGDMKILQSQIISFYLRLFEVLKDNQAISNNISVIESHLITTFFSNSKAKKDAFMSIAKFEVNNPQVQRQAFNELIRVVHQLLPESSLRKRKRSRC
In the case of B2, the “effect on CEREZYME enzyme uptake by macrophage cells” value ([1]; result in words) is reported as “did not enhance or inhibit”.

B3: interleukin-4: cytokine shown to enhance mannose receptor cell surface expression on macrophages (protein, UniProt P05112 25-153, looked up)
Interleukin-4: HKCDITLQEIIKTLNSLTEQKTLCTELTVTDIFAASKNTTEKETFCRAATVLRQFYSHHEKDTRCLGATAQQFHRHKQLIRFLKRLDRNLWGLAGLNSCPVKEANQSTLENFLERLKTIMREKYSKCSS
In the case of B3, the “enhancement of mannose receptor cell surface expression on macrophages” value (mannose receptor) is given as 10-15 fold.
